Data on 21 molecules can be found in ChEMBL document CHEMBL1130927, “Novel imidazole derivatives with subtype-selective antimuscarinic activity (2)” (Bioorg Med Chem Lett, 1998).

Assay [1] addresses Muscarinic acetylcholine receptor M3 (Cavia porcellus) (UniProt Q8VH26). Description: Antimuscarinic activity against M3 receptor of guinea pig ileum. It counts as tissue-based.
The subject of assay [2] is Muscarinic acetylcholine receptors; M2 & M3. Description: Selectivity ratio was calculated between Kb values at M2 and M3 muscarinic receptors. Format: protein assay. The conditions noted are these: Cavia porcellus.
For assay [3], the target named is Muscarinic acetylcholine receptor M2 (Cavia porcellus). Description: Antimuscarinic activity against M2 receptor of guinea pig atrium. The conditions noted are these: Cardiac atrium.

Muscarinic acetylcholine receptor M3 (Cavia porcellus), sequence (Q8VH26 1-587): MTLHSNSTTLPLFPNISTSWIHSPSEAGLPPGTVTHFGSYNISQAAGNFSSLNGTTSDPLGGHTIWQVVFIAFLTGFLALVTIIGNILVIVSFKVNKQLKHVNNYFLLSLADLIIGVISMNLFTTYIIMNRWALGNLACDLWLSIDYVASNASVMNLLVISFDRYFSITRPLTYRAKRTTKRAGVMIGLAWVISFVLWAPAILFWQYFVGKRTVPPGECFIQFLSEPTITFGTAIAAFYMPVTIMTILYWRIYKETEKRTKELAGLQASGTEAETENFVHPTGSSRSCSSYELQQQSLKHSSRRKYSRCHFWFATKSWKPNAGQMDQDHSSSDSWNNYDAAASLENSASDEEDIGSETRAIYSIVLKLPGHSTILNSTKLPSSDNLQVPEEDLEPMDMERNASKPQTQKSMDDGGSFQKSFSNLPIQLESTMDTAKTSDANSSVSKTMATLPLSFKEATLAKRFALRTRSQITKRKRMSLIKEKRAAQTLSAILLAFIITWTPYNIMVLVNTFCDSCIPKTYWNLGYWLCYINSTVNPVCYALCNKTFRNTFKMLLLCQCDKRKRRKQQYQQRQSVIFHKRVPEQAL

In the case of `Cc1nccn1CCC(C(N)=O)(c1ccccc1)C(C)C` (stereo unspecified), the Kb in assay [1] turned out to be 394 nM.
Regarding `Cc1nccn1CCC(O)(c1ccccc1)c1ccccc1`, the Kb is 16.7 nM in assay [1] and 50.1 nM in assay [3]. Besides, the Ratio in assay [2] was 3.
In the same order, the values of `Cc1nccn1CCC(C(=O)O)(c1ccccc1)c1ccccc1` are 6.95 nM, 82.7 nM and 11.9.
Consider `Cc1nccn1CCC(C(N)=O)C1c2ccccc2CCc2ccccc21` (stereo unspecified), for which, in assay [1], the Kb worked out at 2140 nM.
Take `Cc1nccn1C(C)CC(C(N)=O)(c1ccccc1)c1ccccc1` (stereo unspecified): the results for the Kb in assay [1] and in assay [3] were 16.9 nM and 174 nM, respectively. Further, the Ratio in assay [2] is 10.3.
In the same order, the values of `Cc1nccn1CCCCCC(C(N)=O)(c1ccccc1)c1ccccc1` are 71.3 nM, 710 nM and 9.96.
As for `Cc1nccn1CCC(C(N)=O)(c1ccccc1)C1CCCCC1` (stereo unspecified), the Kb in assay [1] was determined as 19 nM; in assay [3] it was 603 nM. For the same molecule, the Ratio in assay [2] was 31.7.
The molecule `Cc1nccn1CCC(C)(C(N)=O)c1ccccc1` (stereo unspecified) gave a Kb in assay [1] of 1830 nM.
On to `Cc1nccn1CCC(C(N)=O)(c1ccccc1)c1ccccn1` (stereo unspecified), for which the Kb is 2.86 nM in assay [1] and 50.1 nM in assay [3]. In addition, in assay [2], the Ratio is 17.5.
On to `Cc1nccn1CCC(C(N)=O)(c1ccccc1)c1ccccc1`, for which, in assay [2], the Ratio is 13.
The molecule `Cc1nccn1CCC(C(N)=O)C1c2ccccc2Oc2ccccc21` (stereo unspecified) showed a Kb in assay [1] above 300 nM.
Consider `Cc1ccc(C(CCn2ccnc2C)(C(N)=O)c2ccccc2)cc1` (stereo unspecified), for which the Kb in assay [1] was found to be 24.6 nM; in assay [3], 743 nM. Further, the Ratio in assay [2] was 30.3.
`Cc1nccn1CCC(C(=O)N(C)C)(c1ccccc1)c1ccccc1`: the Kb in assay [1] was 258 nM; in assay [3] it was 478 nM. In addition, in assay [2], the Ratio is 1.85.
The corresponding values for `CNC(=O)C(CCn1ccnc1C)(c1ccccc1)c1ccccc1` are 5150 nM, 5870 nM and 1.14.
In the same order, the values of `Cc1nccn1CCC(CO)(c1ccccc1)c1ccccc1` are 25.4 nM, 83.8 nM and 3.3.
The corresponding values for `Cc1nccn1CC(C)C(C(N)=O)(c1ccccc1)c1ccccc1` (stereo unspecified) are 2.89 nM, 45.1 nM and 15.6.
Regarding `Cc1nccn1CCCCC(C(N)=O)(c1ccccc1)c1ccccc1`, the Kb turned out to be 43.7 nM in assay [1] and 148 nM in assay [3]. Also, the Ratio in assay [2] was 3.39.
The corresponding values for `Cc1nccn1CCC(C#N)(c1ccccc1)c1ccccc1` are 10.4 nM, 15.5 nM and 1.49.
On to `COC(=O)C(CCn1ccnc1C)(c1ccccc1)c1ccccc1`, for which, in assay [1], the Kb was above 1000 nM.
Take `Cc1nccn1CCCC(C(N)=O)(c1ccccc1)c1ccccc1`: the Kb in assay [1] was 1.14 nM; in assay [3] it was 20.1 nM. The Ratio in assay [2] was 17.6.
In the same order, the values of `Cc1nccn1CCC(C(N)=O)(c1ccc(F)cc1)c1ccc(F)cc1` are 9.85 nM, 161 nM and 16.3.
